Counter-ions that a name gives are not always drawn. Like-named read-outs stand apart in the source and are kept apart here.
Test system: LMP1 expression in Kem I cells
Test: microbe, parasite or virus in culture
Format: cell-based, EBV
Conditions: for fold induction at 1 µM / fold induction at 2.5 µM: human gammaherpesvirus 4, 48 h; for Average LMP1 Fold Increase / Replicate 1-LMP1 Fold Increase / Replicate 2-LMP1 Fold Increase: Kem I cells, 48 hours
[1] = read-out: Average LMP1 Fold Increase, Kem I cells, 1 uM, 48 hours, average of replicates 1 and 2
[2] = read-out: Replicate 1-LMP1 Fold Increase, Kem I cells, 1 uM, 48 hours, fold change in LMP1 transcript vs vehicle
[3] = read-out: Replicate 2-LMP1 Fold Increase, Kem I cells, 1 uM, 48 hours, fold change in LMP1 transcript vs vehicle
[4] = 2.5 uM, average of replicates 1 and 2
[5] = 2.5 uM, fold change in LMP1 transcript vs vehicle
[6] = read-out: Average LMP1 Fold Increase, Kem I cells, 2.5 uM, 48 hours, average of replicates 1 and 2
[7] = read-out: Replicate 1-LMP1 Fold Increase, Kem I cells, 2.5 uM, 48 hours, fold change in LMP1 transcript vs vehicle
[8] = read-out: Replicate 2-LMP1 Fold Increase, Kem I cells, 2.5 uM, 48 hours, fold change in LMP1 transcript vs vehicle
[9] = read-out: Average LMP1 Fold Increase, Kem I cells, dose 2.5 uM, 48 hours, LMP1 transcript by in-well qRT-PCR, average of the two replicates
[10] = read-out: Replicate 1-LMP1 Fold Increase, Kem I cells, dose 2.5 uM, 48 hours, LMP1 transcript by in-well qRT-PCR, screen replicate 1
[11] = read-out: Replicate 2-LMP1 Fold Increase, Kem I cells, dose 2.5 uM, 48 hours, LMP1 transcript by in-well qRT-PCR, screen replicate 2
[12] = dose 2.5 uM, LMP1 transcript by in-well qRT-PCR, average of the two replicates
[13] = dose 2.5 uM, LMP1 transcript by in-well qRT-PCR, screen replicate 1
[14] = dose 2.5 uM, LMP1 transcript by in-well qRT-PCR, screen replicate 2

| SMILES | Average LMP1 Fold Increase [4] | Replicate 1-LMP1 Fold Increase [5] | Replicate 2-LMP1 Fold Increase [5] | further results |
| --- | --- | --- | --- | --- |
| COc1cccc2c1C(=O)c1c(O)c3c(c(O)c1C2=O)C[C@@](O)(C(=O)CO)C[C@@H]3O[C@H]1C[C@H](N)[C@H](O)[C@H](C)O1 [Doxorubicin] | – | – | – | fold induction at 1 µM [1]: 47; fold induction at 1 µM [2]: 39.2; fold induction at 1 µM [3]: 54.8 |
| COc1cc(-n2c(=S)[nH]c3ccccc3c2=O)c(Cl)cc1Cl [Mdivi-1] | 0.64 | 0.51 | 0.77 | – |
| CCN[C@H]1CN(CCCOC)S(=O)(=O)c2sc(S(N)(=O)=O)cc21 [Brinzolamide] | – | – | – | fold induction at 2.5 µM [6]: 0.21; fold induction at 2.5 µM [7]: 0.23; fold induction at 2.5 µM [8]: 0.2 |
| Cc1c(C(=O)NN2CCCCC2)nn(-c2ccc(Cl)cc2Cl)c1-c1ccc(Cl)cc1 [Rimonabant] | – | – | – | fold induction at 2.5 µM [6]: 0.39; fold induction at 2.5 µM [7]: 0.24; fold induction at 2.5 µM [8]: 0.54 |
| Cc1cccc(-c2nn3c(c2-c2ccnc4ccc(C(N)=O)cc24)CCC3)n1 [LY2157299] | 0.30 | 0.30 | 0.30 | – |
| CN(C)CCOc1ccc(/C(=C(/CCCl)c2ccccc2)c2ccccc2)cc1 [Toremifene Citrate] | – | – | – | fold induction at 2.5 µM [9]: 0.54; fold induction at 2.5 µM [10]: 0.55; fold induction at 2.5 µM [11]: 0.54 |
| C[C@H](NC(=O)[C@@H](O)c1cc(F)cc(F)c1)C(=O)N[C@@H]1C(=O)N(C)c2ccccc2-c2ccccc21 [LY411575] | 0.36 | 0.41 | 0.31 | – |
| O=C(N/N=C/c1ccc(O)c(O)c1)c1cc2ccccc2cc1O [Dynasore] | – | – | – | fold induction at 2.5 µM [6]: 0.77; fold induction at 2.5 µM [7]: 0.64; fold induction at 2.5 µM [8]: 0.89 |
| CCO[C@@H]1OC(=O)C[C@@H]1NC(=O)[C@@H]1CCCN1C(=O)[C@@H](NC(=O)c1ccc(N)c(Cl)c1)C(C)(C)C [VX-765] | – | – | – | fold induction at 2.5 µM [9]: 0.41; fold induction at 2.5 µM [10]: 0.45; fold induction at 2.5 µM [11]: 0.37 |
| CCc1nc(N)nc(N)c1-c1ccc(Cl)cc1 [Pyrimethamine] | – | – | – | fold induction at 2.5 µM [6]: 0.8; fold induction at 2.5 µM [7]: 0.7; fold induction at 2.5 µM [8]: 0.9 |
| Cc1nn(-c2ccccc2)c(C)c1/C=N/N1CCN(Cc2ccccc2)CC1 [SANT-1] | 0.64 | 0.31 | 0.97 | – |
| CC(C)(C)c1cc(/C=C(\C#N)C(N)=S)cc(C(C)(C)C)c1O [Tyrphostin AG 879] | – | – | – | Average LMP1 Fold Increase [12]: 0.74 fold; Replicate 1-LMP1 Fold Increase [13]: 0.53 fold; Replicate 2-LMP1 Fold Increase [14]: 0.95 fold |
| CCN(c1cc(C#CCN2CCOCC2)cc(C(=O)NCc2c(C)cc(C)[nH]c2=O)c1C)[C@H]1CC[C@H](N(C)CCOC)CC1 [EPZ 011989] | – | – | – | fold induction at 1 µM [1]: 30.5; fold induction at 1 µM [2]: 4.1; fold induction at 1 µM [3]: 56.9 |
| C=CC(=O)Nc1cccc(Oc2nc(Nc3ccc(N4CCN(C)CC4)cc3OC)ncc2Cl)c1 [WZ4002] | – | – | – | Average LMP1 Fold Increase [12]: 0.90 fold; Replicate 1-LMP1 Fold Increase [13]: 0.58 fold; Replicate 2-LMP1 Fold Increase [14]: 1.23 fold |
| COc1cc(N2CCN(C)CC2)ccc1Nc1nccc(-c2cn(C)c3cnccc23)n1 [AZ191] | 0.37 | 0.50 | 0.24 | – |
| O=C(NOC[C@H](O)CO)c1ccc(F)c(F)c1Nc1ccc(I)cc1F [PD0325901] | – | – | – | fold induction at 2.5 µM [6]: 0.47; fold induction at 2.5 µM [7]: 0.68; fold induction at 2.5 µM [8]: 0.27 |
| O=[N+]([O-])C=Cc1ccc2c(c1)OCO2 | 1.11 | 0.54 | 1.68 | – |
| Cc1c(-c2ccc(O)cc2)n(Cc2ccc(OCCN3CCCCCC3)cc2)c2ccc(O)cc12 [Bazedoxifene HCl] | – | – | – | fold induction at 2.5 µM [6]: 0.54; fold induction at 2.5 µM [7]: 0.52; fold induction at 2.5 µM [8]: 0.56 |

| SMILES | Average LMP1 Fold Increase [4] | Replicate 1-LMP1 Fold Increase [5] | Replicate 2-LMP1 Fold Increase [5] | further results |
| --- | --- | --- | --- | --- |
| C#Cc1cccc(Nc2ncnc3cc4c(cc23)OCCOCCOCCO4)c1 [Icotinib] | – | – | – | fold induction at 2.5 µM [6]: 8.04; fold induction at 2.5 µM [7]: 15.7; fold induction at 2.5 µM [8]: 0.34 |
| O=C1[C@H](Cc2ccc(O)cc2)N2C(=O)CCN(C(=O)NCc3ccccc3)[C@H]2CN1Cc1cccc2ccccc12 [ICG-001] | 1.04 | 1.17 | 0.92 | – |
| Cn1cnc2c(F)c(Nc3ccc(Br)cc3Cl)c(C(=O)NOCCO)cc21 [Selumetinib (AZD6244)] | 0.54 | 0.64 | 0.44 | – |
| CC(C)[C@H](O)C(=O)N[C@@H](C)C(=O)N[C@@H]1C(=O)N(C)CCc2ccccc21 [Semagacestat (LY450139)] | 0.45 | 0.31 | 0.59 | – |
| NC(=O)c1ccc(I)c([N+](=O)[O-])c1 [Iniparib (BSl-201)] | 0.63 | 0.51 | 0.76 | – |
| O=C1NC(=O)C(c2ccccc2[N+](=O)[O-])=C1Nc1ccc(O)c(Cl)c1 [SB415286] | 0.71 | 0.59 | 0.84 | – |
| CCn1c(=O)c2c(nc(/C=C/c3ccc(OC)c(OC)c3)n2C)n(CC)c1=O [Istradefylline] | – | – | – | fold induction at 2.5 µM [6]: 0.7; fold induction at 2.5 µM [7]: 0.35; fold induction at 2.5 µM [8]: 1.06 |
| C[C@H](Cn1cnc2c(N)ncnc21)OCP(=O)(O)O [Tenofovir] | – | – | – | Average LMP1 Fold Increase [12]: 0.18 fold; Replicate 1-LMP1 Fold Increase [13]: 0.18 fold; Replicate 2-LMP1 Fold Increase [14]: 0.19 fold |
| CCCCCCCCCCCCCCCCn1cc[n+](Cc2ccccc2)c1C.[I-] [NH125] | 0.70 | 0.94 | 0.46 | – |
| CCc1cccc2c3c([nH]c12)C(CC)(CC(=O)O)OCC3 (stereo not drawn) [Etodolac] | – | – | – | fold induction at 2.5 µM [6]: 0.84; fold induction at 2.5 µM [7]: 0.57; fold induction at 2.5 µM [8]: 1.1 |
| Cc1sc2c(c1C)C(c1ccc(Cl)cc1)=N[C@@H](CC(=O)Nc1ccc(O)cc1)c1nnc(C)n1-2 [OTX015] | – | – | – | fold induction at 2.5 µM [6]: 0.63; fold induction at 2.5 µM [7]: 0.14; fold induction at 2.5 µM [8]: 1.12 |
| CCN(CC)CCCC(C)Nc1nc(C)cc(Nc2ccc3nc(C)cc(N)c3c2)n1 (stereo not drawn) [NSC 23766] | 0.82 | 0.62 | 1.01 | – |
| NC(=O)c1cccc(-c2cc(Nc3ccc(OC(F)(F)F)cc3)ncn2)c1 [GNF-2] | 1.06 | 0.21 | 1.91 | – |
| Cc1nnc(C(=O)NC(C)(C)c2nc(C(=O)NCc3ccc(F)cc3)c(O)c(=O)n2C)o1 [Raltegravir (MK-0518)] | 1.31 | 0.59 | 2.02 | – |
| O=C(NOCC1CC1)c1ccc(F)c(F)c1Nc1ccc(I)cc1Cl [PD184352 (CI-1040)] | 0.66 | 0.65 | 0.66 | – |
| CCC(CC)CC1(C(=O)Nc2ccccc2SC(=O)C(C)C)CCCCC1 [Dalcetrapib (JTT-705, RO4607381)] | 0.98 | 0.61 | 1.34 | – |
| Cc1cc(Nc2ccc(NC(=O)c3ccc(Nc4ccnc5ccccc45)cc3)cc2)nc(N)n1 [SGI-1027] | 53.53 | 13.12 | 93.95 | – |

— US20230053688A1, “METHODS TO ALTER LATENCY IN EBV+ MALIGNANCIES” (Cornell University, priority 2020, published 2023)
